Reference: ChEMBL document CHEMBL3045572, “Mitochondrial impacts of insecticidal formate esters in insecticide-resistant and insecticide-susceptible Drosophila melanogaster” (Pest Manag Sci, 2009)
Active and inactive are the calls of the source. The calls are words filed in the database; no cut-off is given here.

What was measured:
Drosophila melanogaster [1] = assay: Disruption of mitochondria in insecticide-susceptible Drosophila melanogaster Hikone-R assessed as increase in cytochrome c release from mitochondria to cytosol at 1 mM by western blot analysis; format: functional, organism-based
Drosophila melanogaster [2] = assay: Disruption of mitochondria in insecticide-susceptible Drosophila melanogaster Canton-S assessed as increase in cytochrome c release from mitochondria to cytosol at 1 mM by western blot analysis; format: functional, organism-based
Drosophila melanogaster [3] = assay: Inhibition of cytochrome c oxidase in insecticide-resistance Drosophila melanogaster Hikone-R mitochondria at 100 mM using reduced cytochrome c as substrate by microplate spectrophotometer analysis
Drosophila melanogaster [4] = assay: Inhibition of cytochrome c oxidase in insecticide-susceptible Drosophila melanogaster Canton-S mitochondria at 100 mM using reduced cytochrome c as substrate by microplate spectrophotometer analysis
[5] = Inhibition of cytochrome c oxidase in insecticide-resistance Drosophila melanogaster Hikone-R mitochondria using reduced cytochrome c as substrate by microplate spectrophotometer analysis
[6] = Inhibition of cytochrome c oxidase in insecticide-susceptible Drosophila melanogaster Canton-S mitochondria using reduced cytochrome c as substrate by microplate spectrophotometer analysis
Drosophila melanogaster [7] = conditions: Hikone-R, Mitochondria, 10 mM
Description: Inhibition of cytochrome c oxidase in insecticide-resistance Drosophila melanogaster Hikone-R mitochondria at 10 mM using reduced cytochrome c as substrate by microplate spectrophotometer analysis

Drosophila melanogaster [8] = conditions: Canton-S, Mitochondria, 10 mM
Description: Inhibition of cytochrome c oxidase in insecticide-susceptible Drosophila melanogaster Canton-S mitochondria at 10 mM using reduced cytochrome c as substrate by microplate spectrophotometer analysis

Structure (SMILES) | Activity (Drosophila melanogaster [1]) | Activity (Drosophila melanogaster [2]) | inhibition (Drosophila melanogaster [3]) | inhibition (Drosophila melanogaster [4]) | IC50 [5] | IC50 [6] | inhibition (Drosophila melanogaster [7]) | inhibition (Drosophila melanogaster [8])
CCCCOC=O | Active | Active | < 8% | < 8% |  |  |  | 
O=C[O-].[Na+] [SODIUM FORMATE] | Active | Active |  |  | > 100 mM | > 100 mM | 3% | 3%
CCCCCCCOC=O | Active | Active | < 8% | < 8% |  |  |  | 
CC(=O)[O-].[Na+] [SODIUM ACETATE] |  |  |  |  | > 100 mM | > 100 mM |  | 
CCOC=O | Active | Active | < 8% | < 8% |  |  |  | 
C=C(C)[C@H]1Cc2c(ccc3c2O[C@@H]2COc4cc(OC)c(OC)cc4[C@@H]2C3=O)O1 | Active | Active |  |  |  |  |  | 
O=COCCOC=O | Active | Active | < 8% | < 8% |  |  |  | 
CC1(C)CNC(=NN=C(/C=C/c2ccc(C(F)(F)F)cc2)/C=C/c2ccc(C(F)(F)F)cc2)NC1 [HYDRAMETHYLNON] |  |  |  |  | 0.48 mM | 0.47 mM |  | 
[N-]=[N+]=[N-] [SODIUM AZIDE] |  |  |  |  | > 16 mM | > 16 mM |  | 
CC(C)(C)OC=O | Active | Active | < 8% | < 8% |  |  |  | 
CCCOC=O | Active | Active | < 8% | < 8% |  |  |  | 
CCCCCC[C@H]1C(=O)O[C@H](C)[C@H](NC(=O)c2cccc(NC=O)c2O)C(=O)O[C@@H](C)[C@@H]1OC(=O)CC(C)C | Active | Active |  |  |  |  |  | 
CCC(=O)[O-].[Na+] [SODIUM PROPIONATE] |  |  |  |  | > 100 mM | > 100 mM |  | 
CCCCCCOC=O | Active | Active | < 8% | < 8% |  |  |  | 
COC=O | Active | Active | < 8% | < 8% |  |  |  | 
